The species entered for one test is Rattus norvegicus. As to the kind of experiment: Comparative activity against Testosterone 5 alpha-Reductase evaluated by setting Ki of 7-(2-Hydroxy-1-methyl-ethyl)-1,4a,6a-trimethyl-hexadecahydro-indeno[5,4-f]quinolin-2-one at 1.
A short description of test [1]: Compound was evaluated for in vitro inhibition of Testosterone 5 alpha-Reductase using substrate concentration 3 x 10e-7 M. Also on record: species or system Rattus norvegicus.

Usually Ki stands for a dissociation constant, usually derived from enzyme kinetics or from competition with a known ligand. A lower Ki goes with a stronger hold on the target. In the case of `CC(CO)C1CCC2C3CC[C@H]4N(C)C(=O)CCC4(C)C3CCC12C` (stereo not given in full), the Relative activity in the test listed under Rattus norvegicus was determined as 1. In test [1], the affinity, expressed as Ki, was 3.8 nM.

Consider `CC(CO)C1CCC2C3CC[C@H]4N(C)C(=S)OCC4(C)C3CCC12C` (stereo not given in full), for which, in test [1], the Ki came to 400 nM.

The compound `CCN(CC)C(=O)[C@H]1CC[C@H]2[C@@H]3CC[C@H]4N(C)C(=O)CC[C@]4(C)[C@H]3CC[C@]12C` displayed a Ki in test [1] of 7.3 nM.

In test [1], `CC(CO)C1CCC2C3CC[C@H]4N(C)C(=O)OCC4(C)C3CCC12C` (stereo not given in full) registered a Ki of 120 nM.

Values taken from ChEMBL document CHEMBL1122894, “Preparation of 20-(hydroxymethyl)-4-methyl-4-aza-2-oxa-5 alpha-pregnan-3-one as an inhibitor of testosterone 5 alpha-reductase” (J Med Chem, 1985).
